Measured values taken from US20070021391A1, “Preventive/remedy for urinary disturbance” (priority 2003, published 2007).
Where a name gives a salt, the structure may show the parent alone. Read-outs that look alike come from different tables or passages of the source.

Tests used:
[1] = tested on: Hartley male guinea pig, urethane anesthesia; test: Pressure/flow study using guinea pig under continuous phenylephrine (Example 4); format: in vivo; conditions: i.v., phenylephrine 3 μg/animal/min
Method: A parameter (the maximum urine flow rate) at urination and a parameter (bladder compliance) at the collection of urine were also measured by a method similar as Example 3 shown below, with respect to the compounds B1 to B6 ([Table 8]).
A Hartley male guinea pig of 4 to 5 weeks old (Japan SLC) was used. After urethane anesthesia, the medial incision of the lower abdomen was carried out, and the bladder was exposed. Two injection needles (20G) with which a polyethylene tube (PE-100) was linked were inserted in the bladder, and one needle was used for injection of saline and another needle was used for measurement of the inner pressure of the bladder. A catheter was inserted in fernoral vein, and phenylephrine was continuously administrated at a flow rate of 3 μg/animal/min. Saline was continuously injected at a speed of 18 mL/h, the injection was stopped after intermittent urination was confirmed 2 times at minimum, and the saline in the bladder was removed by suction. Injection was started again, and the injection was stopped when the raise of the inner pressure of the bladder just before urination was confirmed. The amount of urine eliminated was measured by an electronic weighing machine and the inner pressure of the bladder was measured using a pressure transducer. The analogue data of the weight of urine and the inner pressure of the bladder were inputted in a multi-channel data analyzer (MP-100A-CE, Biopac systems), and analyzed by a proprietary software (Acqknowledge, Biopac systems). As the parameters, the maximum urine flow rate and bladder compliance were measured. Saline in the bladder was extracted after 10 min of the intravenous administration of the compound, and injection was started again to carry out measurement. The compounds were dissolved with DMSO so that administration volume was 0.5 mL/kg. The change rate of respective parameters before and after administration of the compounds was calculated and the calibration of significant difference was carried out by a solvent administration group and t calibration.

[2] = target: T1, butyrylcholine esterase of human serum origin (Homo sapiens, UniProt P06276); test: biochemical; format: biochemical; conditions: for IC50: read-out: BuChE IC50
T1 construct: butyrylcholine esterase of human serum origin; purchased Biogenesis, Poole, UK; host or cells: human serum
Method: (§1) The AChE inhibitory activity and the BuChE inhibitory activity were determined by a thiocholine method (Ellman method) using acetylcholine esterase of human erythrocyte origin (Sigma, St. Louis, Mo., USA) and butyrylcholine esterase of human serum origin (Biogenesis, Poole, UK). Acetylcholine esterase or butyrylcholine esterase was diluted to a concentration of 0.2 IU/mL with 80 mM tris-HCL buffers (pH=7.4) containing 0.3% bovine serum albumin (BSA) to prepare an enzyme preparation. […] The stock solution was diluted at 3-fold common ratio with 10% DMSO and 80 mM tris-HCl buffers containing 0.3% BSA. On a 96 wells microplate, 20 μL of the drug solution with a given concentration, 30 μL of 80 mM tris-HCl buffers containing 0.3% BSA and 50 μL of the enzyme preparation were distributed, and incubated at room temperature for 1 hour after shaking for 10 seconds. […] For the respective drugs, the test was repeated twice. The % of control of the increase in light absorption was calculated at each concentration with respect to the respective drugs. % of control=increase in light absorption of drug/increase in light absorption of control×100

[3] = target: T2, acetylcholine esterase of human erythrocyte origin (Homo sapiens, UniProt P22303); test: biochemical; format: biochemical; conditions: for Selectivity b/a: BuChE IC50/AChE IC50 (Table 3)
T2 construct: acetylcholine esterase of human erythrocyte origin; purchased Sigma, St. Louis, Mo., USA; host or cells: human erythrocytes
Method: as §1

bladder muscle = tested on: bladder muscle; parameters: species or system guinea pig; conditions: for Tension (%): Compound A 0 μM
[4] = mean value of twice tests, read-out: AchE IC50

T2 sequence (P22303 32-617 isoform P22303-2 limits assumed): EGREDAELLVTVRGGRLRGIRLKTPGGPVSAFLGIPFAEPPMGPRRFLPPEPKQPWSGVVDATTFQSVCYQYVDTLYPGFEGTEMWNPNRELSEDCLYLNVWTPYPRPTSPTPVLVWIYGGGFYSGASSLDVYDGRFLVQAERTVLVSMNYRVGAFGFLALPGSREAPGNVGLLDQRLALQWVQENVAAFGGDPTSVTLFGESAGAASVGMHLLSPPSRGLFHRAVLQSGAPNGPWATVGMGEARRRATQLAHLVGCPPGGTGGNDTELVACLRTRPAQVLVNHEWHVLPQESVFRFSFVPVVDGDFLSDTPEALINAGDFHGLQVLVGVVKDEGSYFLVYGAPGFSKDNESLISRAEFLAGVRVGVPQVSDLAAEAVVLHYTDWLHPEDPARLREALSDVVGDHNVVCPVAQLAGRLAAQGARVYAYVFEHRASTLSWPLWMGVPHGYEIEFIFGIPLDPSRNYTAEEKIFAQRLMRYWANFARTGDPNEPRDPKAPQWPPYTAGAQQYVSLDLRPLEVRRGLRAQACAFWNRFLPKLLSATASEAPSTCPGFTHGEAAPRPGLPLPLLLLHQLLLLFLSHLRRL
T1 sequence (P06276 29-602): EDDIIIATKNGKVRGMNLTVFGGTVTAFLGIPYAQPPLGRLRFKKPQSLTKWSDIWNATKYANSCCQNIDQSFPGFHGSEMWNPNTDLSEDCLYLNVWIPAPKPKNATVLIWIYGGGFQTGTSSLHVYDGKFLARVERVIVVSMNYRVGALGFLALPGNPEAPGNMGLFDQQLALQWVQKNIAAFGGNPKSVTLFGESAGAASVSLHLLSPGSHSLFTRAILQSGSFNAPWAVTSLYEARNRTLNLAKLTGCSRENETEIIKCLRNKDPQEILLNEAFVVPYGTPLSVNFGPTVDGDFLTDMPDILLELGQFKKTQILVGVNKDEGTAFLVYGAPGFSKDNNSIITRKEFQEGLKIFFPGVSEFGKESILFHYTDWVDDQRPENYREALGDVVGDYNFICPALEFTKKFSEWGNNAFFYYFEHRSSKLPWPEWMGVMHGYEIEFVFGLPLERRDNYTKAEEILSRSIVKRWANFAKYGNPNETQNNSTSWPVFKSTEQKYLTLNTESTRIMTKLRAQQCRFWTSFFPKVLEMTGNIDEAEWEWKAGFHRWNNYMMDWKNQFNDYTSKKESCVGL

| Compound | Bladder compliance, proportion for value before administration ([1]; 0.1 mg/kg) | Maximum urine flow rate, proportion for value before administration ([1]; 0.1 mg/kg) | IC50 ([2]; mean value of twice tests) [nM] | Selectivity b/a [3] | IC50 [3, 4] [nM] | Tension (%) (bladder muscle; Table 5: iso-OMPA 10 μM) | Tension (%) (bladder muscle; Table 5: iso-OMPA 100 μM) | effect on basic tension (bladder muscle; drug alone) | inhibitory activity for human butyrylcholine esterase [2] | Bladder compliance, proportion for value before administration ([1]; 0.3 mg/kg) | Maximum urine flow rate, proportion for value before administration ([1]; 0.3 mg/kg) | IC50 [2] [nM] | IC50 [3] [nM] |
| --- | --- | --- | --- | --- | --- | --- | --- | --- | --- | --- | --- | --- | --- |
| CN(CCCCC(=O)c1ccc2c(c1)n(C)c(=O)n2C)CCc1ccccc1Cl [Compound B3, 5-[5-[[2-(2-chlorophenyl)ethyl](methyl)amino]pentanoyl]-1,3-dimethyl-1,3-dihydro-2H-benzoimidazol-2-one) hydrochloride] | 94.7 ± 11.1 | 150.8 ± 19.4 | > 10000 | >350 | 28 |  |  |  |  |  |  |  |  |
| CC(C)NP(=O)(NC(C)C)OP(=O)(NC(C)C)NC(C)C [iso-OMPA, tetraisopropylpyrophosphoramide] |  |  |  |  |  | −1.31 ± 0.21 | −0.85 ± 0.38 | alone did not influence tension either | showed the inhibitory activity to only butyrylcholine esterase |  |  |  |  |
| CCNC(=O)N1CCc2cc(C(=O)CCCCNCCc3ccccc3OC)ccc21.Cl [Compound B4, N-ethyl-5-[5-[[2-(2-methoxyphenyl)ethyl]amino]pentanoyl]-1-indolincarboxamide hydrochloride] |  |  |  | >85 |  |  |  |  |  | 104.2 ± 8.1 | 165.4 ± 14.9 | > 10000 | 118 |
| CN(CCCCC(=O)c1ccc2[nH]c(=O)[nH]c2c1)CCc1ccccc1Cl [Compound B2, 5-[5-[[2-(2-chlorophenyl)ethyl](methyl)amino]pentanoyl]-1,3-dihydro-2H-benzoimidazol-2-one) hydrochloride] |  |  | > 10000 | >45 | 224 |  |  |  |  | 95.0 ± 5.1 | 138.1 ± 13.1 |  |  |
